SMILES strings stand for the structures. Where a SMILES comes first, the peptide text is derived from it. Bridges are numbered along the chain shown (N, C = ends).

In this assay the target is T1, recombinant human VEGF165 (Homo sapiens, UniProt P15692).
T1 sequence (P15692 27-191 isoform P15692-4): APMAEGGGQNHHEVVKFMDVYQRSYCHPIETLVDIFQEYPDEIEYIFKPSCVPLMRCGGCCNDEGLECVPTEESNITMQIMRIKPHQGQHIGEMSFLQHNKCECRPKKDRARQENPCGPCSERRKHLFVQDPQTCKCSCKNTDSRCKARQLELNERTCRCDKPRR
Nature of the assay: VEGF peptide binding assay (competition ELISA, VEGF165 binding to coated VEGFR2/Fc). On the procedure:
High-binding half-well 96-well plates (Costar #3690) were coated with recombinant human VEGFR2/Fc (50 ng/well) in 50 μl PBS, and incubated at 4° C. overnight. After washing the plates three times with 1× washing buffer (KPL Cat#50-65-00) and blocking with Superblock (Scytek #AAA500) at room temperature (RT) for 1 hour, VEGF-peptides of the invention were serially diluted (concentrations: 0.128-10,000 nM) in the presence of 25 ng/ml of recombinant human VEGF165 in […] Superblock, and were then added to the 96-well plates and incubated at RT for 1 hour. Peptides of the invention tested in this fashion were all capped at the amino terminus with a C(O)CH3 group and at the carboxyl terminus with a NH2 group. The plates were then washed three times with washing buffer, and a diluted (1:500) biotinylated anti-human VEGF antibody (R&D systems, Cat# BAF293) was added and incubated at RT for 2 hours. After washing the plates, streptavidin HRP conjugate (1:200 in Superblock) (R&D systems, Cat# DY998) was added to detect the bound anti-VEGF antibody, followed by addition of tetramethylbenzidine (TMB) substrate (Pierce, Cat#34021) for color development. The reaction was stopped with 2 M H2SO4. OD450 was measured using SpectraMax (Molecular Device) with a correction wavelength of 540 nm. The data were analyzed using Prism software. OD450 values were plotted as a function of the concentrations of the VEGF peptides. IC50 values, indicative of the potency of the VEGF peptides to inhibit VEGF-VEGFR2 interaction, were obtained using a sigmoid dose-response curve fit in Prism.
(An ELISA detects its analyte on a solid surface through an enzyme-linked reagent.)
As usually defined, the IC50 is the concentration that inhibits the measured activity by half. Turning to `CC[C@H](C)[C@@H]1NC(=O)[C@H](CC(=O)O)NC(=O)[C@@H](NC(=O)[C@H](CC(N)=O)NC(=O)[C@@H]2CCCN2C(=O)[C@H](CCC(=O)O)NC(=O)[C@@H](NC(C)=O)C(C)C)CSSC[C@@H](C(=O)N[C@@H](Cc2ccccc2)C(=O)N[C@@H](CCC(=O)O)C(=O)N[C@@H](CCCNC(=N)N)C(=O)N[C@@H](CC(C)C)C(=O)N[C@@H](Cc2ccc(O)cc2)C(=O)NCC(=O)NCC(=O)NCC(N)=O)NC(=O)[C@H](C(C)C)NC(=O)[C@H](Cc2c[nH]c3ccccc23)NC(=O)[C@H](C(C)C)NC(=O)[C@H](Cc2c[nH]c3ccccc23)NC(=O)[C@H](CCSC)NC(=O)[C@H](C(C)C)NC(=O)[C@H](Cc2c[nH]cn2)NC1=O` [Compound 43, VEPNCDIHVMWVWVCFERLYGGG] (Ac-VEPNCDIHVMWVWVCFERLYGGG-NH2; disulfide 5-15), the IC50 was found to be 66 nM.

In the case of `CC[C@H](C)[C@@H]1NC(=O)[C@H](CC(=O)O)NC(=O)[C@@H](NC(=O)[C@H](CC(N)=O)NC(=O)[C@@H]2CCCN2C(=O)[C@H](CCC(=O)O)NC(=O)[C@@H](NC(C)=O)C(C)C)CSSC[C@@H](C(=O)N[C@@H](Cc2ccccc2)C(=O)N[C@@H](CCC(=O)O)C(=O)N[C@@H](CCCNC(=N)N)C(=O)N[C@@H](CC(C)C)C(=O)N[C@@H](Cc2ccc(O)cc2)C(=O)NCC(=O)N[C@@H](CC(C)C)C(=O)N[C@@H](Cc2ccc(O)cc2)C(N)=O)NC(=O)[C@H](CCC(=O)O)NC(=O)[C@H](Cc2c[nH]c3ccccc23)NC(=O)[C@H](C(C)C)NC(=O)[C@H](Cc2c[nH]c3ccccc23)NC(=O)[C@H](CCSC)NC(=O)[C@H](C(C)C)NC(=O)[C@H](Cc2c[nH]cn2)NC1=O` [Compound 44, VEPNCDIHVMWVWECFERLYGLY] (Ac-VEPNCDIHVMWVWECFERLYGLY-NH2; disulfide 5-15 (inferred)), the IC50 is 54.6 nM.

Turning to `CC[C@H](C)[C@@H]1NC(=O)[C@H](CC(=O)O)NC(=O)[C@@H](NC(=O)[C@H](CC(N)=O)NC(=O)[C@@H]2CCCN2C(=O)[C@H](CCC(=O)O)NC(=O)[C@@H](NC(C)=O)C(C)C)CSSC[C@@H](C(=O)N[C@@H](Cc2ccccc2)C(=O)N[C@@H](CCC(=O)O)C(=O)N[C@@H](CCCNC(=N)N)C(=O)N[C@@H](CC(C)C)C(=O)N[C@@H](CO)C(=O)NCC(=O)NCC(=O)NCC(N)=O)NC(=O)[C@H](CCC(=O)O)NC(=O)[C@H](Cc2c[nH]c3ccccc23)NC(=O)[C@H](C(C)C)NC(=O)[C@H](Cc2c[nH]c3ccccc23)NC(=O)[C@H](CCSC)NC(=O)[C@H](C(C)C)NC(=O)[C@H](Cc2c[nH]cn2)NC1=O` [Compound 45, VEPNCDIHVMWVWECFERLSGGG] (Ac-VEPNCDIHVMWVWECFERLSGGG-NH2; disulfide 5-15 (inferred)), the IC50 is 51 nM.

On to `CC[C@H](C)[C@@H]1NC(=O)[C@H](CC(=O)O)NC(=O)[C@@H](NC(=O)[C@H](CC(N)=O)NC(=O)[C@@H]2CCCN2C(=O)[C@H](CCC(=O)O)NC(=O)[C@@H](NC(C)=O)C(C)C)CSSC[C@@H](C(=O)N[C@@H](Cc2ccccc2)C(=O)N[C@@H](CCC(=O)O)C(=O)N[C@@H](CCCNC(=N)N)C(=O)N[C@@H](CC(C)C)C(=O)N[C@@H](CCSC)C(=O)N[C@@H](CCCNC(=N)N)C(=O)N[C@@H](CC(C)C)C(=O)N[C@H](C(N)=O)[C@@H](C)O)NC(=O)[C@H](CCC(=O)O)NC(=O)[C@H](Cc2c[nH]c3ccccc23)NC(=O)[C@H](C(C)C)NC(=O)[C@H](Cc2c[nH]c3ccccc23)NC(=O)[C@H](CCSC)NC(=O)[C@H](C(C)C)NC(=O)[C@H](Cc2c[nH]cn2)NC1=O` [Compound 46, VEPNCDIHVMWVWECFERLMRLT] (Ac-VEPNCDIHVMWVWECFERLMRLT-NH2; disulfide 5-15 (inferred)), for which the IC50 is 44.1 nM.

Consider `CC[C@H](C)[C@@H]1NC(=O)[C@H](CC(=O)O)NC(=O)[C@@H](NC(=O)[C@H](CC(N)=O)NC(=O)[C@@H]2CCCN2C(=O)[C@H](CCC(=O)O)NC(=O)[C@@H](NC(C)=O)C(C)C)CSSC[C@@H](C(=O)N[C@@H](Cc2ccccc2)C(=O)N[C@@H](CCC(=O)O)C(=O)N[C@@H](CCCNC(=N)N)C(=O)N[C@@H](CC(C)C)C(=O)N[C@@H](Cc2ccc(O)cc2)C(=O)NCC(N)=O)NC(=O)[C@H](CCC(=O)O)NC(=O)[C@H](Cc2c[nH]c3ccccc23)NC(=O)[C@H](C(C)C)NC(=O)[C@H](Cc2c[nH]c3ccccc23)NC(=O)[C@H](CCSC)NC(=O)[C@H](C(C)C)NC(=O)[C@H](Cc2c[nH]cn2)NC1=O` [Compound 47, VEPNCDIHVMWVWECFERLYG] (Ac-VEPNCDIHVMWVWECFERLYG-NH2; disulfide 5-15 (inferred)), for which the IC50 was found to be 43.3 nM.

Regarding `CC[C@H](C)[C@@H]1NC(=O)[C@H](CC(=O)O)NC(=O)[C@@H](NC(=O)[C@H](CC(N)=O)NC(=O)[C@@H]2CCCN2C(=O)[C@H](CCC(=O)O)NC(=O)[C@@H](NC(C)=O)C(C)C)CSSC[C@@H](C(=O)N[C@@H](Cc2ccccc2)C(=O)N[C@@H](CCC(=O)O)C(=O)N[C@@H](CCCNC(=N)N)C(=O)N[C@@H](CC(C)C)C(=O)N[C@H](C(=O)N[C@@H](CCCCN)C(N)=O)C(C)C)NC(=O)[C@H](CCC(=O)O)NC(=O)[C@H](Cc2c[nH]c3ccccc23)NC(=O)[C@H](C(C)C)NC(=O)[C@H](Cc2c[nH]c3ccccc23)NC(=O)[C@H](CCSC)NC(=O)[C@H](C(C)C)NC(=O)[C@H](Cc2c[nH]cn2)NC1=O` [Compound 48, VEPNCDIHVMWVWECFERLVK] (Ac-VEPNCDIHVMWVWECFERLVK-NH2; disulfide 5-15 (inferred)), the concentration for half-maximal inhibition (IC50) was 42.4 nM.

As to `CC[C@H](C)[C@@H]1NC(=O)[C@H](CC(=O)O)NC(=O)[C@@H](NC(=O)[C@H](CC(N)=O)NC(=O)[C@@H]2CCCN2C(=O)[C@H](CCC(=O)O)NC(=O)[C@@H](NC(C)=O)C(C)C)CSSC[C@@H](C(=O)N[C@@H](Cc2ccccc2)C(=O)N[C@@H](CCC(=O)O)C(=O)N[C@@H](CCCNC(=N)N)C(=O)N[C@@H](CC(C)C)C(=O)N[C@@H](CCSC)C(=O)N[C@@H](CCCNC(=N)N)C(N)=O)NC(=O)[C@H](CCC(=O)O)NC(=O)[C@H](Cc2c[nH]c3ccccc23)NC(=O)[C@H](C(C)C)NC(=O)[C@H](Cc2c[nH]c3ccccc23)NC(=O)[C@H](CCSC)NC(=O)[C@H](C(C)C)NC(=O)[C@H](Cc2c[nH]cn2)NC1=O` [Compound 49, VEPNCDIHVMWVWECFERLMR] (Ac-VEPNCDIHVMWVWECFERLMR-NH2; disulfide 5-15 (inferred)), the IC50 is 34.5 nM.

As to `CC[C@H](C)[C@H](NC(=O)CNC(=O)[C@H](Cc1ccc(O)cc1)NC(=O)[C@H](CC(C)C)NC(=O)[C@H](CCCNC(=N)N)NC(=O)[C@H](CCC(=O)O)NC(=O)[C@H](Cc1ccccc1)NC(=O)[C@@H]1CSSC[C@H](NC(=O)[C@H](CC(N)=O)NC(=O)[C@@H]2CCCN2C(=O)[C@H](CCC(=O)O)NC(=O)[C@@H](NC(C)=O)C(C)C)C(=O)N[C@@H](CC(=O)O)C(=O)N[C@@H]([C@@H](C)CC)C(=O)N[C@@H](Cc2c[nH]cn2)C(=O)N[C@@H](C(C)C)C(=O)N[C@@H](CCSC)C(=O)N[C@@H](Cc2c[nH]c3ccccc23)C(=O)N[C@@H](C(C)C)C(=O)N[C@@H](Cc2c[nH]c3ccccc23)C(=O)N[C@@H](CCC(=O)O)C(=O)N1)C(=O)N[C@@H](CC(C)C)C(N)=O` [Compound 50, VEPNCDIHVMWVWECFERLYGIL] (Ac-VEPNCDIHVMWVWECFERLYGIL-NH2; disulfide 5-15 (inferred)), the IC50 was 34.4 nM.

The values above are taken from patent US8937048B2, “Anti-angiogenic compounds” (Covx Technologies Ireland, Limited, priority 2008, dated 2015).
